Values quoted from earlier work as cited in patent publication US11195597B2, “Method and device for calculating acid dissociation constant, and program” (FUJITSU LIMITED, priority 2015, dated 2021).

Settings: known measured value; dissociation point circled in the structure

Structure (SMILES)	pKa
CC(C)C(=O)O.N [Number 5]	9.69
CCc1ccccc1.N [Number 14]	9.34
CCNCc1ccccc1 [Number 15]	9.68
CNCc1ccccc1 [Number 16]	9.58
CC1CCCCC1.N [Number 17]	10.64
CNC1CCCCC1 [Number 18]	10.49
CCCNCCC [Number 22]	11
CCC(C)NC(C)CC (stereo not drawn) [Number 23, di-sec-butylamine]	11.01
C=CCNCC=C [Number 24]	9.29
C=CCN(C)CC=C [Number 25]	8.79
CC(C)CNCC(C)C [Number 28, di-isobutylamine]	10.5
CCCCN(C)C [Number 32]	10.02
CCCN(C)C [Number 33]	9.99
CC(C)(C)CN [Number 58]	10.21
CCCCN(CCCC)CCCC [Number 76, tri-n-butylamine]	10.89
Nc1ccc2ccccc2c1 [Number 92, 2-naphthalamine]	4.16
N#Cc1ccccn1 [Number 93, 2-cyanopyridine]	−0.3
N#Cc1cccnc1 [Number 98, 3-cyanopyridine]	1.4
N#Cc1ccncc1 [Number 103, 4-cyanopyridine]	1.9
c1ccc(-c2ccncc2)cc1 [Number 105, 4-phenylpyridine]	5.5
c1ccc(Nc2ccccc2)cc1 [Number 108]	0.78
CN(C)c1ccccc1 [Number 109]	5.2
c1ccc2[nH]cnc2c1 [Number 112]	16.4
c1ccc2cc3ncccc3cc2c1 [Number 113]	5.05
c1ccc2c(c1)[nH]c1ccccc12 [Number 114]	19.9
c1ccc2c(c1)CCCN2 [Number 132, tetrahydroquinoline]	5

Next, values leading:

pKa	Structure (SMILES)
9.04	CC(CCCNC(N)N)C(=O)O.N (stereo not drawn) [Number 10]
12.48	CC(CCCNC(N)N)C(=O)O (stereo not drawn) [Number 11]
8.8	CC(CC(N)=O)C(=O)O.N (stereo not drawn) [Number 12]
9.82	CC(CC(=O)O)C(=O)O.N (stereo not drawn) [Number 13]
10.52	CC(C)CN(C)C [Number 35]
9.67	CC(CCC(=O)O)C(=O)O.N (stereo not drawn) [Number 41]
9.17	CC(Cc1cnc[nH]1)C(=O)O.N (stereo not drawn) [Number 43]
9.68	CCC(C)C(C)C(=O)O.N (stereo not drawn) [Number 44]
8.95	CC(CCCCN)C(=O)O.N (stereo not drawn) [Number 47]
10.53	NCCCCC(N)C(=O)O (stereo not drawn) [Number 48]
7.78	O=C(c1ccccc1)N1CCNCC1 [Number 52]
9.13	N[C@@H](Cc1ccccc1)C(=O)O [Number 59, phenylalanine]
10.49	NCCCCCc1ccccc1 [Number 60, phenylamylamine]
10.4	NCCCCc1ccccc1 [Number 61]
10.2	NCCCc1ccccc1 [Number 63]
10.6	O=C(O)C1CCCN1 (stereo not drawn) [Number 67]

pKa	Structure (SMILES)
9.15	NC(CO)C(=O)O (stereo not drawn) [Number 72]
9.1	C[C@@H](O)[C@H](N)C(=O)O [Number 75, threonine]
9.39	NC(Cc1c[nH]c2ccccc12)C(=O)O (stereo not drawn) [Number 82]
9.62	CC(C)C(N)C(=O)O (stereo not drawn) [Number 84]
3.3	COc1ccccn1 [Number 90, 2-methoxypyridine]
−2.6	O=[N+]([O-])c1ccccn1 [Number 94, 2-nitropyridine]
4.9	COc1cccnc1 [Number 96, 3-methoxypyridine]
5.7	Cc1cccnc1 [Number 97]
0.6	O=[N+]([O-])c1cccnc1 [Number 99, 3-nitropyridine]
4.8	c1ccc(-c2cccnc2)cc1 [Number 100, 3-phenylpyridine]
6.6	COc1ccncc1 [Number 101, 4-methoxypyridine]
1.6	O=[N+]([O-])c1ccncc1 [Number 104, 4-nitropyridine]
5.14	c1ccc2cnccc2c1 [Number 120, isoquinoline]
2.5	c1ncc2[nH]cnc2n1 [Number 123]
8.9	c1ncc2[nH]cnc2n1 [Number 124]
